For test [1], the species on record is Rattus norvegicus. The experiment in a line: Tested for antagonist activity in rat uterus with respect to human angiotensin II as reference. The following applies: read-out: pA2 (converted). The format is functional.
The species entered for test [2] is Rattus norvegicus. The experiment in a line: Tested for agonist activity in rat uterus with respect to human angiotensin II. The format is functional.

The source of these data is ChEMBL document CHEMBL1127853, “Novel synthesis of cyclic amide-linked analogues of angiotensins II and III” (J Med Chem, 1994).

Molecules are shown by their SMILES. Where a SMILES comes first, the peptide text is derived from it. Where only a bound is given, the exact number is not on record here.

As for `CC[C@H](C)[C@@H]1NC(=O)[C@H](Cc2ccc(O)cc2)NC(=O)[C@H](Cc2ccccc2)NC(=O)[C@@H]2CCCN2C(=O)[C@H](Cc2c[nH]cn2)NC1=O` (cyclo(FYIHP)) [listing 1 of 2 here], in test [1], the Kb was above 10 µM.
`CC[C@H](C)[C@@H]1NC(=O)[C@H](Cc2ccc(O)cc2)NC(=O)[C@H](Cc2ccccc2)NC(=O)[C@@H]2CCCN2C(=O)[C@H](Cc2c[nH]cn2)NC1=O` (cyclo(FYIHP)) [listing 2 of 2 here]: the Agonist activity in test [2] was below 0.1%.
